# Laboratory results from ChEMBL document CHEMBL4699523, “Predicting the Human Hepatic Clearance of Acidic and Zwitterionic Drugs” (J Med Chem, 2020).
# How the values were obtained:
# physchem [1] = assay: physchem
# in vivo [2] = conditions: Wistar Hannover, rat, blood and plasma, iv
# Description: Ratio of drug level in Wistar Hannover rat blood to plasma administered through iv dosing by LC-MS/MS analysis
# in vivo [3] = conditions: cynomolgus monkey, blood and plasma, iv
# Description: Ratio of drug level in cynomolgus monkey blood to plasma administered through iv dosing by LC-MS/MS analysis
# [4] = human, in vivo, iv
# Description: Hepatic clearance in human administered through iv dosing
# physchem [5] = assay: physchem; remark: listed apart in the source
# [6] = cynomolgus monkey, in vivo, iv, 1 mg/kg
# in vitro [7] = conditions: rat, plasma
# Description: Fraction unbound in rat plasma
# in vitro [8] = conditions: human, plasma
# Description: Fraction unbound in human plasma
# in vitro [9] = conditions: dog, MDCK, pH 7.4
# Description: Apparent permeability in dog MDCKII-LE cells at pH 7.4
# in vitro [10] = conditions: cynomolgus monkey, plasma
# Description: Fraction unbound in cynomolgus monkey plasma
# in vitro [11] = conditions: human, cryopreserved hepatocytes
# physchem [12] = conditions: buffer, pH 7.4
# clinical = conditions: human, blood and plasma, iv
# Description: Ratio of drug level in human blood to plasma administered through iv dosing by LC-MS/MS analysis
# [13] = rat, in vivo, iv, 1 mg/kg
# [14] = Ratio of drug level in human blood to plasma administered through oral dosing by LC-MS/MS analysis; format: ADME, cell-free; conditions: blood and plasma
# [15] = Ratio of drug level in cynomolgus monkey blood to plasma administered through oral dosing by LC-MS/MS analysis; format: ADME, cell-free, Macaca fascicularis; conditions: blood and plasma
# [16] = Hepatic clearance in human administered through oral dosing; format: ADME
# [17] = Hepatic clearance in cynomolgus monkey administered through oral dosing; format: ADME, Macaca fascicularis; conditions: in vivo
SMILES,pKa at 0.3 h (physchem [1]),blood plasma ratio (in vivo [2]),blood plasma ratio (in vivo [3]),CLH [4],pKa at 0.3 h (physchem [5]),CLH [6],fraction unbound (in vitro [7]),fraction unbound (in vitro [8]),Papp (in vitro [9]),fraction unbound (in vitro [10]),"CLint scaled at 2 h, 1 µM (in vitro [11])",logD (physchem [12]),blood plasma ratio (clinical),CLH [13],blood plasma ratio [14],blood plasma ratio [15],CLH [16],CLH [17]
CCCc1nc2c(C)cc(-c3nc4ccccc4n3C)cc2n1Cc1ccc(-c2ccccc2C(=O)O)cc1,3.2,0.65,0.61,10.2 mL/min/kg,4.2,9.2 mL/min/kg,0.006,0.006,12 ×10⁻⁶ cm/s,0.0125,39 mL/min/kg,2.4,0.61,4.3 mL/min/kg,–,–,–,–
O=C(O)[C@@H]1CCC[C@H]1C(=O)c1ccc(-c2ccc(Nc3nc4ccc(F)cc4s3)c(F)c2)cc1,2.4,–,–,–,4.7,–,–,0.00086,2.3 ×10⁻⁶ cm/s,0.0014,201 mL/min/kg,> 3.5,–,–,0.653,0.617,0.59 mL/min/kg,2 mL/min/kg
Cc1cc(O[C@H](CCC(F)(F)F)c2ccc(C(=O)NCCC(=O)O)cc2)cc(C)c1-c1ccc(C(C)(C)C)cc1,–,–,–,–,4.4,–,–,3.6e-05,–,5.6e-05,1680 mL/min/kg,> 3.5,–,–,0.605,0.823,0.078 mL/min/kg,0.29 mL/min/kg
Cc1ccc(S(=O)(=O)NCCc2ccc(Oc3ccc(F)c(F)c3)cc2)cc1C(=O)O,–,–,–,–,3.4,–,–,0.00229,7.3 ×10⁻⁶ cm/s,0.00107,19 mL/min/kg,1.6,–,–,0.55,0.562,0.72 mL/min/kg,6.1 mL/min/kg
COc1ccccc1[C@H](Cn1c(=O)n(C(C)(C)C(=O)O)c(=O)c2c(C)c(-c3ncco3)sc21)OC1CCOCC1 [FIRSOCOSTAT],–,–,–,–,–,–,–,0.0172,5.5 ×10⁻⁶ cm/s,0.0284,23 mL/min/kg,1.1,–,–,0.655,0.623,10 mL/min/kg,11.3 mL/min/kg

# Other lines, results leading:
pKa at 0.3 h (physchem [1]),blood plasma ratio (in vivo [2]),blood plasma ratio (in vivo [3]),CLH [4],pKa at 0.3 h (physchem [5]),CLH [6],fraction unbound (in vitro [7]),fraction unbound (in vitro [8]),Papp (in vitro [9]),fraction unbound (in vitro [10]),"CLint scaled at 2 h, 1 µM (in vitro [11])",logD (physchem [12]),blood plasma ratio (clinical),CLH [13],blood plasma ratio [14],blood plasma ratio [15],CLH [16],CLH [17],SMILES
–,–,–,–,4.2,–,–,0.0032,25 ×10⁻⁶ cm/s,0.0045,27 mL/min/kg,2.6,–,–,0.575,0.575,0.26 mL/min/kg,0.72 mL/min/kg,Cc1ccc(NC(=O)C2(c3ccc4c(c3)OC(F)(F)O4)CC2)nc1-c1cccc(C(=O)O)c1 [LUMACAFTOR]
–,–,–,–,4.1,–,–,0.00025,–,0.00023,571 mL/min/kg,> 3.5,–,–,0.55,0.95,4.9 mL/min/kg,9.3 mL/min/kg,CCC[C@H](c1ccc(C(=O)NCCC(=O)O)cc1)[C@H](c1ccc(Cl)cc1)c1c[nH]c2c(F)cc(C)cc12 [MK-3577]
5.1,0.65,0.65,5.6 mL/min/kg,4.7,17.8 mL/min/kg,0.008,0.008,8.5 ×10⁻⁶ cm/s,0.0263,31 mL/min/kg,1.2,0.65,7.1 mL/min/kg,–,–,–,–,O=C(O)C[C@H](O)C[C@H](O)/C=C/c1c(C2CC2)nc2ccccc2c1-c1ccc(F)cc1 [PITAVASTATIN]
–,–,–,–,–,–,–,0.0122,17 ×10⁻⁶ cm/s,0.0049,111 mL/min/kg,2.7,–,–,0.612,1.1,8.8 mL/min/kg,6 mL/min/kg,Cn1cc(C(=O)O)c2ccc(N3CCC(OCc4c(-c5c(Cl)cccc5Cl)noc4C4CC4)CC3)cc21 [TERN-101]
